Measured values published in patent US5589568A (priority 1994, dated 1996).
Where no end group is shown, it is not given here.

Columns and labels:
Gi [1] = assay: release of [α-32P]GDP from Gi (GDP exchange); assay type: biochemical, rabbit
Description: FIG. 1. Stimulation of GDP/GTP exchange by analogs of MP. The release of [α-^32 P]GDP from Gi was measured at 30° C. in the presence of the concentrations of several different MP analogs whose structures are listed in Table I: O, Mas7; Δ, Mas8; .tangle-solidup.Mas9; .quadrature., Mas19; .oval-solid., MP; .box-solid., MP-X; .gradient., MAS14; .tangle-soliddn., Mas6. First order dissociation rate constants (kdiss) were determined from duplicate four-point time courses as described under "Experimental Procedures."
Purification of αo and βγ was completed by chromatography on DEAE-Sephacel that was eluted with a gradient of 0-250 mM NaCl in the presence of 0.6% Lubrol and AMF. AMF was removed by chromatography on hydroxyapatite and Sephadex G-25 as described by Sternweis, et al., 1981, incorporated herein by reference. Gi was purified as the αβγ trimer from rabbit liver as reported by Bokoch, et al., 1984, incorporated herein by reference. The Gi used in this study could be recognized on a Western blot by anti-Gi -1 and anti-Gi -3 antibodies but not by anti-Gi -2 antibody, as documented by Mumby, et al., 1983, incorporated herein by reference. Purified recombinant αi,1 was synthesized in E. coli prepared to the specifications of Linder, incorporated herein by reference. During purification, G protein α subunits were assayed by [^35 S] GTPγ S binding according to the method of Higashijima, 1987, incorporated herein by reference). By subunits were assayed according to their ability to deactivate Gs, as detailed by Northup, 1983, incorporated herein by reference.
G proteins were reconstituted into phospholipid vesicles composed of dioleoyl-PC/bovine brain PS/1-palmitoyl,2-oleoyl-PE (3:4:3) as reported previously by Higashijima et al., 1988, incorporated herein by reference.
To measure the MP-catalyzed dissociation of [α-^32 P]GDP or [^35 S]-GTPγS, labeled nucleotide was first bound to G protein (approximately […] in 50 μl) by incubation of the Lubrol-solubilized G protein with a molar excess of nucleotide in assay buffer that contained 10 mM MgSO4 and 0.1% Lubrol. Incubation was for 20 min at 20° C. (for Go) or for 30 min at 30° C. (for Gi), In the case of [α-^32 P]GDP, EDTA was then added to 12 mM. […] Bound nucleotide was determined by binding to nitrocellulose filters as described (Ferguson, 1986), and incorporated herein by reference. […] Data were analyzed using a nonlinear least squares fitting program.

Go [2] = target: T1, Go (Bos taurus, UniProt P08239); assay: steady state GTPase activity of Go in phospholipid vesicles; assay type: biochemical, bovine
T1 construct: proteins were extracted from bovine cerebral cortical membranes; from tissue; host or cells: bovine brain (cerebral cortical membranes)
T1 sequence (P08239 2-354 limits assumed): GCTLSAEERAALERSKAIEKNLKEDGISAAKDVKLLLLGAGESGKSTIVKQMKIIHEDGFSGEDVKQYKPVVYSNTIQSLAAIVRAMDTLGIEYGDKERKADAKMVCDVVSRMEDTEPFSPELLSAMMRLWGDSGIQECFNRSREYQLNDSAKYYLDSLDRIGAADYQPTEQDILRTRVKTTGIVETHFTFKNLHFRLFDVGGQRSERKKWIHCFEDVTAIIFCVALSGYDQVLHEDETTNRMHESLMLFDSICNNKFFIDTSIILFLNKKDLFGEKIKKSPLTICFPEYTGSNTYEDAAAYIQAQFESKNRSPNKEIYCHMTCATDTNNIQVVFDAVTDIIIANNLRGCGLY
T1 sequence (P62871 2-340 partner limits assumed): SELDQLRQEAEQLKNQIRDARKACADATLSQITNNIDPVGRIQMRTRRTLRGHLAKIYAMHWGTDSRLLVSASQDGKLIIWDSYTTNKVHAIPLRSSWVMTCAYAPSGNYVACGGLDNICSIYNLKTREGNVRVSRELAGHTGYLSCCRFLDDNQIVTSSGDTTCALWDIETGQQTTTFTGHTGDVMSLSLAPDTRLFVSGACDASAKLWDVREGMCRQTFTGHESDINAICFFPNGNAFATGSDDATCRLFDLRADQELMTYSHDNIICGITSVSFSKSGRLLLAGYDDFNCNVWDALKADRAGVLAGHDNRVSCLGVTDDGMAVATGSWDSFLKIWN
T1 sequence (P63212 2-68 partner limits assumed): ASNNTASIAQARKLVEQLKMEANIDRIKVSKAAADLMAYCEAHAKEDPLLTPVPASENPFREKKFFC

Gi [3] = assay: steady state GTPase activity of Gi in phospholipid vesicles; assay type: biochemical, rabbit;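 further: Steady-state GTP hydrolysis by Gi measured in a detergent-free buffer containing 1.1 mM MgSO4 plus the specified guanine nucleotide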
Description: The concentration of free Mg^2+ in assay medium that contains 5 mM EDTA and no added Mg^2+ is estimated to be 0.1-0.2 nM according to Brandt et al., 1988 and 1983.

[4] = critical micelle concentration; assay type: physicochemical
Excerpt: MP was synthesized and purified as described by Saito and his colleagues (Chem. Pharm. Bull., 32:2187-2193, 1984, incorporated herein by reference). The MP analogs listed in Table I were synthesized by standard solid phase methods and purified by C-4 HPLC using an acetonitrile gradient in 0.1% trifluoroacetic acid. […] The identity of the peptides was monitored by 400-MHz or 250-Mhz ^1 H NMR spectroscopy for MP and MP-X and by mass spectroscopy for the other analogs. […] BAC was purchased from Sigma, and other alkylammonium compounds were from Aldrich. The critical micelle concentration of BAC was measured in the buffer used for GTPase assays (see below) using 1,6-diphenyl-1,3,5-hexatriene according to the method of Schrock and Gennis, (J. Biol. Chem, 252:5990-5995, 1977, incorporated herein by reference). The critical micelle concentration was approximately 20 μM.

Gs = Gs (Homo sapiens, UniProt P63092); assay: steady state GTPase activity of Gs; assay type: biochemical; settings: Table IV; for EC50: read-out: Gs af. (apparent affinity, estimated by EC50 of GTPase activity)
Chain of Gs (P63092 whole entry): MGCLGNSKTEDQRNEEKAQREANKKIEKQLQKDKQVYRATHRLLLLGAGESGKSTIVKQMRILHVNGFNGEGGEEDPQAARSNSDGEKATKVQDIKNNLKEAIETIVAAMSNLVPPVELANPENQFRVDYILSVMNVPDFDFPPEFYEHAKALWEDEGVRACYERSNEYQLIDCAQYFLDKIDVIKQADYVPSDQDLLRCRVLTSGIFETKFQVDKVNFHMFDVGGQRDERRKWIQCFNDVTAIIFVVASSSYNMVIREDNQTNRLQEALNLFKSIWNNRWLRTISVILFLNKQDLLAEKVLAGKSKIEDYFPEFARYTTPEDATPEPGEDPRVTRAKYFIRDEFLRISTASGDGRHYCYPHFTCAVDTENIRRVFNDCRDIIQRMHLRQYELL
Description: Methods for the assay of steady state GTP hydrolysis and GTPγS binding have been described previously by Higashijima, 1987, and Ferguson, 1986, and incorporated herein by reference. Unless noted otherwise, assays of steady state GTP hydrolysis and of the binding and dissociation of guanine nucleotides were carried out in the buffer described previously, but without detergent and with 1.1 mM MgSO4 and the nucleotide specified in the text. When necessary, the concentration of free Mg^2+ was adjusted using EDTA buffers as described previously by Higashijima, 1987, and incorporated herein by reference.
The data set forth in the following tables represent data generated by the inventors employing the steady state GTP hydrolysis, expressed as molar turnover numbers, are described herein under the "Assay" section of the Experimental Procedures in Example 1. The data has been classified according to the criteria outlined below and the effects of each peptide and modified variant on Go, Gi, and Gs have been tabulated. Table III below sets forth data generated for various mastoparan analogues designed by the inventors, in comparison with the various naturally-occurring mastoparans (e.g., MP, MP-A and MP-T). Table IV sets forth similar data generated for various receptor-based peptides designed by the inventors based on a consideration of various G-protein linked receptors.
Apparent affinity (af.) and apparent efficacy (ef.) were estimated by EC50 and maximum turnover number of GTPase activity.

[5] = circular dichroism, fractional helical content; assay type: physicochemical; settings: 20 μM peptide, pH 7.5, 25° C.
Description: CD spectra of peptides were measured using an Aviv model 60DS spectrometer at 25° C. in 1-mm pathlength cells. Spectra were scanned at 1 nm intervals for 3 s, and three scans were averaged. Peptides were dissolved at 20 μM in 5 mM Tris-Cl, pH 7.5, in the presence or absence of sonicated 1 mM 1-palmitoyl,2-oleoylphosphatidylcholine. Fractional helical content for each peptide was calculated according to the assumption that, for 100% helix and 14 peptide bonds, θ222 =36,000 (1-2.6/14).
Fractional helical contents of some of the peptides

[6] = system: muscarinic cholinergic receptor; assay type: binding, porcine
Go [7] = target: T1, Go; assay: rate of hydrolysis of protein-bound [γ-32P]GTP; assay type: biochemical, bovine
Description: The rate of hydrolysis of protein-bound [γ^32 P]GTP was measured essentially as described previously (Higashijima, 1987) at 20° C. in assay medium that contained 2 ppm Lubrol 12A9. Go (10 nM) was incubated in assay medium for 16 min with 100 nM [γ-^32 P]GTP to allow nucleotide to bind. Hydrolysis was initiated by the addition of 1.3 mM MgSO4. Excess unlabeled GTP was also added such that only a single turnover was measured. The production of [^32 P]Pi was measured as described by Higashijima, 1987.

[8] = lytic capacity / toxicity of mastoparan-based peptides

CCCCCCCCCCCCC[N+](C)(C)Cc1ccccc1 [BAC (C-12), benzalkonium chloride]
BAC concentration range in which the EC50 for Mas7 increased sharply (Gi [1]; Gi, FIG. 4B): 1 to 3 µg/mL
inhibition of Mas7-stimulated GDP exchange on Gi (Gi [1]; intermediate concentrations of Mas7): ≤ 60%
effect on basal GDP exchange rate of Gi (Gi [1]; no Mas7): no detectable inhibition
Turnover number Go 10 μg/ml (Go [2]; 10 μg/ml amine, 15 min at 20° C., PE/PC/PS vesicles): 0.33 min⁻¹
Turnover number Go 100 μg/ml (Go [2]; 100 μg/ml amine, 15 min at 20° C.): 0.8 min⁻¹
maximal stimulation of Go (Go [2]; at about 30 μg/ml (~0.1 mM) BAC, FIG. 5): 20 fold
effect on stimulation of Gi GTPase activity by Mas7 and MP (Gi [3]; 3 μg/ml BAC, 10 μM Mas7 (FIG. 3)): antagonized
Turnover number Gi 10 μg/ml (Gi [3]; 10 μg/ml amine, 30 min at 30° C.): 0.08 min⁻¹
Turnover number Gi 100 μg/ml (Gi [3]; 100 μg/ml amine, 30 min at 30° C.): 0.04 min⁻¹
critical micelle concentration ([4]; as restated): 20 µg/mL
critical micelle concentration ([4]; buffer used for GTPase assays, 1,6-diphenyl-1,3,5-hexatriene): approximately 20 μM

CC[C@H](C)[C@H](N)C(=O)N[C@@H](CC(N)=O)C(=O)N[C@@H](CC(C)C)C(=O)N[C@@H](CCCCN)C(=O)N[C@@H](C)C(=O)N[C@@H](CC(C)C)C(=O)N[C@@H](C)C(=O)N[C@@H](C)C(=O)N[C@@H](CC(C)C)C(=O)N[C@@H](C)C(=O)N[C@@H](CCCCN)C(=O)N[C@@H](CCCCN)C(=O)N[C@H](C(=O)N[C@@H](CC(C)C)C(N)=O)[C@@H](C)CC [MP]
stimulation of Gi (Gi [1]; GDP exchange assay, typical): about 15 fold
EC50 (Go [2]): 3 to 10 µM
GTPase Go 10 μM (Go [2]; 10 μM peptide, 15 min at 20° C., PE/PC/PS vesicles): 0.59 min⁻¹
GTPase Go 100 μM (Go [2]; 100 μM peptide, 15 min at 20° C., PE/PC/PS vesicles): 0.95 min⁻¹
Goo ef. (apparent efficacy, maximum turnover number of GTPase activity) (Go [2]; Table IV): E (Excellent (E): 30-10 fold)
GTPase Gi 10 μM (Gi [3]; 10 μM peptide, 30 min at 30° C., PE/PC/PS vesicles): 0.19 min⁻¹
GTPase Gi 100 μM (Gi [3]; 100 μM peptide, 30 min at 30° C., PE/PC/PS vesicles): 0.47 min⁻¹
stimulation of Gi (Gi [3]; GTPase assay, typical): about 15 fold
G1 ef. (apparent efficacy, maximum turnover number of GTPase activity) (Gi [3]; Table IV): E (Excellent (E): 30-10 fold)
EC50 (Gi [3]; Table IV, read-out: G1 af. (apparent affinity, estimated by EC50 of GTPase activity)): 10 to 30 µM
Gs ef. (apparent efficacy, maximum turnover number of GTPase activity) (Gs): F (Fair (F): 2-5 fold)
EC50 (Gs): 3 to 10 µM
% α Helix - PC ([5]; absence of 1 mM phospholipid): 19%
% α Helix + PC ([5]; presence of 1 mM phospholipid): 61%
effect on affinity of the receptor for the antagonist [3H]QNB [6]: did not alter
effect on the receptor's affinity for acetylcholine ([6]; 30 μM peptide, […]): decreased the receptor's affinity for acetylcholine
effect on rate of hydrolysis of bound GTP (Go [7]): did not alter

INLKALAALKKALL-NH2 [ER25]
EC50 (Go [2]): 10 to 30 µM
EC50 (Gs): 10 to 30 µM
toxicity (in words) [8]: least toxic
